According to patent US10464902B1, “Multi-tyrosine kinase inhibitors derivatives and methods of use” (Ontogenesis, LLC, priority 2015, dated 2019):
Where two headings read alike, the source gives them in different places.

Assays:
[1] = system: subretinal choroidal neovascularization (CNV); test: Subretinal choroidal neovascularization model after intravitreal injection (virtual example); assay type: in vivo, mammal (preferably a pigmented rabbit or a primate); conditions: intravitreal 50 uL, 10-20 mg/mL
Protocol: The first solution was then added to a saturated fatty acid (e.g. octanoic acid) combined with lecithin or lecithin derivatives (e.g. phosphatidyl choline), a glycerol fatty acid ester (e.g. propylene glycol fatty acid esters such as polyoxyethyleneglycerol triricinoleate), a sorbitan fatty acid ester (e.g. Span® 20, Span® 80) or a olyoxylethylene sorbitan fatty acid ester (e.g. Tween® 20, Tween® 80), and optionally a co-surfactant (e.g. propylene glycol, glycerol, PEG 400, 1,2-propanediol), which were then solubilized as a microemulsion using commercial lipoemulsion techniques (e.g. Intralipid®, Abbolipid). […] 50 uL of either Lucentis® or Eylea® was administered into the remaining eye of the mammal. 2 weeks after administration a subretinal choroidal neovascularization (CNV) was caused in the eyes of the mammal using techniques explained in Qui G et al., A new model of experimental subretinal neovascularization in the rabbit, Exp Eye Res, 2006 July, 83(1), 141-152. 6 weeks after subretinal CNV eyes of the mammal were sacrificed for examination.

VEGFR [2] = test: Virtual discovery: suppression of VEGFR; conditions: virtually discovered
[3] = system: intraocular proliferative retinopathy; test: Virtual discovery: intravitreal injection, intraocular proliferative retinopathy; assay type: in vivo
From the text: With the onset of proliferative retinopathy however conventional anti-VEGF therapy causes increased fibrosis. Van Geest R. J. et al., A shift in the balance of vascular endothelial growth factor and connective tissue growth factor by bevacizumab causes the angiofibrotic switch in proliferative diabetic retinopathy Br J Ophthalmol, 2012 April, 96(4), 587-90. […]. The suppression of intraocular proliferative retinopathy in turn suppresses fibrotic induction and the most severe manifestations of proliferative eye disease. This suppression also is virtually discovered to occur when the methyl of the preferred embodiments is replaced by any alkyl group. […]. As diabetic macular edema is amenable to anti-VEGF therapy, its use in patients with preproliferative severe peripheral ischemic disease, and or patients with early proliferative disease may enhance the onset of fibrovascular proliferative morbidity, whereas the present invention using MTKIs combining VEGF suppression with c-MET suppression may both reduce diabetic macular edema and suppress diabetic fibrovascular proliferation.

VEGFR2 [4] = target: T1, VEGFR2 (Homo sapiens (Human), UniProt P35968); conditions: human umbilical vein endothelial cells; cited from earlier work
Target sequence in this assay (P35968 20-1356): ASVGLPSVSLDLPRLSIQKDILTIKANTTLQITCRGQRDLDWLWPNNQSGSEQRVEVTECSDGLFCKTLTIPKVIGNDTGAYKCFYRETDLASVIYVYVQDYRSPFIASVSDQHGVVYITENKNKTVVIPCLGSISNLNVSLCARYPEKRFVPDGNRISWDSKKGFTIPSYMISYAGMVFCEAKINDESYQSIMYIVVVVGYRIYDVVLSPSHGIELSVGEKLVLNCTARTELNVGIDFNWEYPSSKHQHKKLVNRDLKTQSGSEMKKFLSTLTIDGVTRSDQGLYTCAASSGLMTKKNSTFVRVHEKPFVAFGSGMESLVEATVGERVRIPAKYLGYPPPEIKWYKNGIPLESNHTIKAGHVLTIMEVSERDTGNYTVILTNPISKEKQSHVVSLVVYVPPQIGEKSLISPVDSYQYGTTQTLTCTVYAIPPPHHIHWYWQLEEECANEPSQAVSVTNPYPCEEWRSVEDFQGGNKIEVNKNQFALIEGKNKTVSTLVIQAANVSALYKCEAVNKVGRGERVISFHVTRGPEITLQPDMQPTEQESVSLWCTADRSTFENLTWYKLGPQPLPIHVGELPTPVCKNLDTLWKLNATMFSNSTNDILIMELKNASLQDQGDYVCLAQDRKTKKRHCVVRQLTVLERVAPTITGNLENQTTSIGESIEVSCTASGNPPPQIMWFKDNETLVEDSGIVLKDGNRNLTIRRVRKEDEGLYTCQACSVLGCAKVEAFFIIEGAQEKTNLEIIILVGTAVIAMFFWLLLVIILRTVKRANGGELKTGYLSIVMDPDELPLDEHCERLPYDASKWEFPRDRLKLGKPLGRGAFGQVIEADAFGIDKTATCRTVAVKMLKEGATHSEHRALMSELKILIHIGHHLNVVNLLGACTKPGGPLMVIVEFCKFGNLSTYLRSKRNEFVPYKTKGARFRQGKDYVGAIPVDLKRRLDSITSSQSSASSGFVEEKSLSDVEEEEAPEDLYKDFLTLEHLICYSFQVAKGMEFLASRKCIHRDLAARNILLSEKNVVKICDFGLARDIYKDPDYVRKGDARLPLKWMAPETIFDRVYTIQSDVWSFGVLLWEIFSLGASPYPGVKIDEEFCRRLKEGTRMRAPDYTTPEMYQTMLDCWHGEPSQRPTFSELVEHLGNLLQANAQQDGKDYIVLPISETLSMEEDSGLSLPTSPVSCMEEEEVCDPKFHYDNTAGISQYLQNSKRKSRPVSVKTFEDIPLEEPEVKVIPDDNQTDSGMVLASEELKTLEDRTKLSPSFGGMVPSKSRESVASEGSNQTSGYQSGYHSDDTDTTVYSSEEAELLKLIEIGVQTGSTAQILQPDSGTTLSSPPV

[5] = Residence in the vitreous humor; assay type: in vivo; conditions: estimated for its molecular weight
VEGFR2 [6] = target: T1, VEGFR2; conditions: HUVEC, in vitro angiogenic assays; read-out: IC50 VEGFR2 inhibition; cited from earlier work
VEGFR [7] = conditions: read-out: IC50 (concentration required for efficacy); cited from earlier work

## CCCCCCCCCCCCCCCC(=O)OC[n+]1ccc(Oc2ccc(NC(=O)C3(C(=O)Nc4ccc(F)cc4)CC3)cc2)c2cc(OC)c(OC)cc21 [Cabozantinib N-acyl methyl palmitate]
[1]
  suppression of macular edema: long-lasting suppression of macular edema
[1]; vs Lucentis or Eylea in the other eye, CNV 2 weeks after dosing, examined 6 weeks later
  suppression of fibrovascular proliferation: Greater suppression of fibrovascular proliferation
VEGFR [2]
  suppression of VEGFR: suppress
[3]
  suppression of intraocular proliferative retinopathy: suppress intraocular proliferative retinopathy

## Cn1cnc(-c2cc3nccc(Oc4ccc(NC(=S)NC(=O)Cc5ccccc5)cc4F)c3s2)c1 [MGCD-265]
VEGFR2 [4]
  IC50: 3 nM

## Cc1ccc(Nc2nccc(N(C)c3ccc4c(C)n(C)nc4c3)n2)cc1S(N)(=O)=O [pazopantinib, Pazopantinib]
[5]
  intravitreal clearance: within hours

## bevacizumab [Avastin]
VEGFR2 [6]
  IC50: ~1.4 nM

## foretinib N-acyl methyl palmitate
[3]
  suppression of intraocular proliferative retinopathy: suppress intraocular proliferative retinopathy

## ranibizumab [Lucentis]
VEGFR [7]
  IC50: ~19 nM
